Experimental data reported in PubChem BioAssay AID256 (DTP/NCI, 2004).
Values joined by “and” are separate entries in the source; they are usually repeats but may differ in a detail not shown here. Equal values may be shown once. Toxic doses and inconclusive results are not listed. Rule for the calls: active = survival T/C of 150% or more; inactive = T/C below 125% in these data.

Test system: CD2F1 mice, L1210 leukemia ip, survival T/C
Experiment: NCI In Vivo Anticancer Drug Screen. Data for tumor model L1210 Leukemia (intraperitoneal) in CD2F1 (CDF1) mice
Details: higher = longer survival
Outline: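 Transplantable tumor in mice; compound-treated vs vehicle-treated groups. Read-out = treated/control ratio of the measured endpoint.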

[1] = endpoint: mean survival time, dose: 100.0 mg/kg/injection, schedule: Q01DX001 (ip), vehicle: saline
[2] = endpoint: mean survival time, dose: 200.0 mg/kg/injection, schedule: Q01DX001 (ip), vehicle: saline
[3] = endpoint: mean survival time, dose: 400.0 mg/kg/injection, schedule: Q01DX001 (ip), vehicle: saline
[4] = endpoint: mean survival time, dose: 25.0 mg/kg/injection, schedule: Q01DX009 (ip), vehicle: other
[5] = endpoint: mean survival time, dose: 50.0 mg/kg/injection, schedule: Q01DX009 (ip), vehicle: other
[6] = endpoint: mean survival time, dose: 100.0 mg/kg/injection, schedule: Q01DX009 (ip), vehicle: other
[7] = endpoint: mean survival time, dose: 100.0 mg/kg/injection, schedule: Q01DX001 (ip), vehicle: saline with Tween-80
[8] = endpoint: mean survival time, dose: 200.0 mg/kg/injection, schedule: Q01DX001 (ip), vehicle: saline with Tween-80
[9] = endpoint: mean survival time, dose: 400.0 mg/kg/injection, schedule: Q01DX001 (ip), vehicle: saline with Tween-80
[10] = endpoint: mean survival time, dose: 200.0 mg/kg/injection, schedule: Q01DX009 (ip), vehicle: other
[11] = endpoint: mean survival time, dose: 100.0 mg/kg/injection, schedule: Q01DX009 (ip), vehicle: saline with Tween-80
[12] = endpoint: mean survival time, dose: 200.0 mg/kg/injection, schedule: Q01DX009 (ip), vehicle: saline with Tween-80
[13] = endpoint: mean survival time, dose: 400.0 mg/kg/injection, schedule: Q01DX009 (ip), vehicle: saline with Tween-80
[14] = endpoint: mean survival time, dose: 12.5 mg/kg/injection, schedule: Q01DX009 (ip), vehicle: saline with Tween-80
[15] = endpoint: mean survival time, dose: 25.0 mg/kg/injection, schedule: Q01DX009 (ip), vehicle: saline with Tween-80
[16] = endpoint: mean survival time, dose: 50.0 mg/kg/injection, schedule: Q01DX009 (ip), vehicle: saline with Tween-80

Measured: T/C

CCCN(CCC)S(=O)(=O)c1ccc(NC(=O)OC2CCCCC2)cc1
inactive: [1] 93 % of control | [2] 98 % of control | [3] 97 % of control

N.N.N.N.N.N#CN=C(N)N.[Co+3].[O-][Cl+3]([O-])([O-])[O-]
inactive: endpoint: mean survival time, dose: 25.0 mg/kg/injection, schedule: Q04DX002 (ip), vehicle: saline 97 % of control | endpoint: mean survival time, dose: 50.0 mg/kg/injection, schedule: Q04DX002 (ip), vehicle: saline 101 % of control | endpoint: mean survival time, dose: 100.0 mg/kg/injection, schedule: Q04DX002 (ip), vehicle: saline 101 % of control

Cc1cc(CBr)c(O)c(CBr)c1
inactive: [4] 101 % of control | [5] 93 % of control | [6] 104 % of control

O=c1cc(-c2ccc3c(c2)OCO3)oc2ccccc12
inactive: endpoint: mean survival time, dose: 50.0 mg/kg/injection, schedule: Q01DX001 (ip), vehicle: saline 102 % of control | [1] 98 % of control | [2] 98 % of control | [3] 92 % of control

O=C(O)NNC(=O)NO
inactive: endpoint: mean survival time, dose: 100.0 mg/kg/injection, schedule: Q01DX009 (ip), vehicle: saline sonified 97 % of control | endpoint: mean survival time, dose: 200.0 mg/kg/injection, schedule: Q01DX009 (ip), vehicle: saline sonified 103 % of control | endpoint: mean survival time, dose: 400.0 mg/kg/injection, schedule: Q01DX009 (ip), vehicle: saline sonified 101 % of control

CNC(=O)Nc1cc(OC)ccc1OC
inactive: [7] 106 % of control | [8] 106 % of control | [9] 102 % of control

COC1=C2CCCC2=[N+]2CCCCC2C1 (centres undefined)
inactive: endpoint: mean survival time, dose: 100.0 mg/kg/injection, schedule: Q04DX003 (ip), vehicle: saline 96 % of control | endpoint: mean survival time, dose: 200.0 mg/kg/injection, schedule: Q04DX003 (ip), vehicle: saline 96 % of control

CCCCCCC(=C/c1ccccc1)/C=N/NC(=O)c1ccc[n+](C)c1
inactive: endpoint: mean survival time, dose: 100.0 mg/kg/injection, schedule: Q04DX003 (ip), vehicle: saline with Tween-80 98 % of control

CC(Nc1ccccc1)C(=O)N1CCC(Nc2ccccc2)CC1 (centres undefined)
inactive: endpoint: mean survival time, dose: 100.0 mg/kg/injection, schedule: Q04DX002 (ip), vehicle: saline with Tween-80 94 % of control | endpoint: mean survival time, dose: 200.0 mg/kg/injection, schedule: Q04DX002 (ip), vehicle: saline with Tween-80 94 % of control | endpoint: mean survival time, dose: 400.0 mg/kg/injection, schedule: Q04DX002 (ip), vehicle: saline with Tween-80 90 % of control

CCN(CC)C(=O)C(Cc1ccc(OC)c(OC)c1)C(Cc1ccc(OC)c(OC)c1)C(=O)O (centres undefined)
inactive: [6] 98 % of control | [10] 98 % of control | endpoint: mean survival time, dose: 400.0 mg/kg/injection, schedule: Q01DX009 (ip), vehicle: other 95 % of control

CCCCCOc1cc(C(C)=O)cc(OC)c1OC(=O)c1cc([N+](=O)[O-])cc([N+](=O)[O-])c1
inactive: [7] 112 % of control | [8] 90 % of control | [9] 93 % of control

Cc1ccc(NC(=S)Nc2ccc(C)cc2)cc1
inactive: [11] 89 % of control | [12] 91 % of control | [13] 93 % of control

C=CCC(c1ccccc1)(c1ccccc1)c1ccccc1
inactive: endpoint: mean survival time, dose: 75.0 mg/kg/injection, schedule: Q01DX001 (ip), vehicle: saline 93 % of control | endpoint: mean survival time, dose: 150.0 mg/kg/injection, schedule: Q01DX001 (ip), vehicle: saline 95 % of control | endpoint: mean survival time, dose: 300.0 mg/kg/injection, schedule: Q01DX001 (ip), vehicle: saline 97 % of control

CN(Cc1ccc([N+](=O)[O-])cc1)N=Nc1ccc(C(=O)O)cc1
inactive: [4] 94 % of control | [5] 97 % of control | [6] 86 % of control | [10] 94 % of control

Cc1ncc(CNC(=O)N(CCCl)N=O)c(N)n1
active: endpoint: mean survival time, dose: 3.12 mg/kg/injection, schedule: Q01DX009 (ip), vehicle: saline 159 % of control | endpoint: mean survival time, dose: 3.13 mg/kg/injection, schedule: Q01DX009 (ip), vehicle: saline with Tween-80 180 % of control | endpoint: mean survival time, dose: 6.25 mg/kg/injection, schedule: Q01DX009 (ip), vehicle: saline with Tween-80 195 % of control | endpoint: mean survival time, dose: 6.25 mg/kg/injection, schedule: Q01DX009 (ip), vehicle: saline 236 % of control | [14] 357 % of control | endpoint: mean survival time, dose: 12.5 mg/kg/injection, schedule: Q01DX009 (ip), vehicle: saline 288 % of control | endpoint: mean survival time, dose: 17.5 mg/kg/injection, schedule: Q04DX002 (ip), vehicle: saline 337 % of control | [15] 220 % of control | endpoint: mean survival time, dose: 35.0 mg/kg/injection, schedule: Q04DX002 (ip), vehicle: saline 316 % of control

O=C(CCCCCCCCC(=O)N/N=C/c1ccc(Cl)c(Cl)c1)N/N=C/c1ccc(Cl)c(Cl)c1
inactive: [7] 95 % of control | [8] 95 % of control | [9] 94 % of control

O=S(=O)(Cc1ccc(CS(=O)(=O)c2ccc(Cl)cc2)cc1)c1ccc(Cl)cc1
inactive: [14] 91 % of control | [15] 90 % of control | [16] 91 % of control

S=c1nccc[nH]1.[Pt]
inactive: endpoint: mean survival time, dose: 3.13 mg/kg/injection, schedule: Q04DX003 (ip), vehicle: distilled water + Tween-80 98 % of control | endpoint: mean survival time, dose: 6.25 mg/kg/injection, schedule: Q04DX003 (ip), vehicle: distilled water + Tween-80 103 % of control | endpoint: mean survival time, dose: 12.5 mg/kg/injection, schedule: Q04DX003 (ip), vehicle: distilled water + Tween-80 98 % of control | endpoint: mean survival time, dose: 25.0 mg/kg/injection, schedule: Q04DX003 (ip), vehicle: distilled water + Tween-80 97 % of control | endpoint: mean survival time, dose: 50.0 mg/kg/injection, schedule: Q04DX003 (ip), vehicle: distilled water + Tween-80 90 % of control | endpoint: mean survival time, dose: 100.0 mg/kg/injection, schedule: Q04DX003 (ip), vehicle: distilled water + Tween-80 98 % of control | endpoint: mean survival time, dose: 200.0 mg/kg/injection, schedule: Q04DX003 (ip), vehicle: distilled water + Tween-80 98 % of control

O=C(c1ccccc1)c1cccc(C(Br)Br)c1
inactive: [11] 95 % of control | [12] 93 % of control | [13] 101 % of control

OCC1OC(n2cnc3c2NC=NCC3O)C(Cl)C1O (centres undefined)
inactive: endpoint: median survival time, dose: 5.0 mg/kg/injection, schedule: Q01DX005 (ip), vehicle: other 101 % of control | endpoint: median survival time, dose: 10.0 mg/kg/injection, schedule: Q01DX005 (ip), vehicle: other 103 % of control | endpoint: median survival time, dose: 20.0 mg/kg/injection, schedule: Q01DX005 (ip), vehicle: other 96 % of control | endpoint: median survival time, dose: 30.0 mg/kg/injection, schedule: Q01DX005 (ip), vehicle: other 118 % of control | endpoint: median survival time, dose: 40.0 mg/kg/injection, schedule: Q01DX005 (ip), vehicle: other 106 % of control | endpoint: median survival time, dose: 60.0 mg/kg/injection, schedule: Q01DX005 (ip), vehicle: other 107 % of control | endpoint: median survival time, dose: 120.0 mg/kg/injection, schedule: Q01DX005 (ip), vehicle: other 100 % of control

O=S(c1ccc(O)cc1)c1ccc(O)cc1
inactive: [16] 90 % of control | [11] 94 % of control

COc1cccc(C(=O)O)c1C(=O)O
inactive: endpoint: mean survival time, dose: 12.5 mg/kg/injection, schedule: Q01DX005 (ip), vehicle: other 92 % of control | endpoint: mean survival time, dose: 25.0 mg/kg/injection, schedule: Q01DX005 (ip), vehicle: other 92 % of control | endpoint: mean survival time, dose: 50.0 mg/kg/injection, schedule: Q01DX005 (ip), vehicle: other 89 % of control | endpoint: mean survival time, dose: 100.0 mg/kg/injection, schedule: Q01DX005 (ip), vehicle: other 98 % of control | endpoint: mean survival time, dose: 200.0 mg/kg/injection, schedule: Q01DX005 (ip), vehicle: other 101 % of control | endpoint: mean survival time, dose: 400.0 mg/kg/injection, schedule: Q01DX005 (ip), vehicle: other 96 % of control

CCC(C)(O)C(C)=O (centres undefined)
inactive: endpoint: mean survival time, dose: 12.5 mg/kg/injection, schedule: Q01DX009 (ip), vehicle: Klucel (hydroxypropylcellulose) (HPC) 98 % of control | endpoint: mean survival time, dose: 25.0 mg/kg/injection, schedule: Q01DX009 (ip), vehicle: Klucel (hydroxypropylcellulose) (HPC) 92 % of control | endpoint: mean survival time, dose: 50.0 mg/kg/injection, schedule: Q01DX009 (ip), vehicle: Klucel (hydroxypropylcellulose) (HPC) 98 % of control | endpoint: mean survival time, dose: 100.0 mg/kg/injection, schedule: Q01DX009 (ip), vehicle: Klucel (hydroxypropylcellulose) (HPC) 98 % of control | endpoint: mean survival time, dose: 200.0 mg/kg/injection, schedule: Q01DX009 (ip), vehicle: Klucel (hydroxypropylcellulose) (HPC) 105 % of control

CN(CCO)C1=C(N2CC2)C(=O)C(N(C)CCO)=C(N2CC2)C1=O
active: endpoint: mean survival time, dose: 1.0 mg/kg/injection, schedule: Q01DX009 (ip), vehicle: saline 155 % of control | endpoint: mean survival time, dose: 1.5 mg/kg/injection, schedule: Q01DX009 (ip), vehicle: saline 201 % of control and 211 % of control
inactive: endpoint: mean survival time, dose: 0.5 mg/kg/injection, schedule: Q01DX009 (ip), vehicle: saline 115 % of control and 117 % of control
